“Also recorded” adds a separate entry of the source.
Columns and labels:
[1] = 100 mg doses for 1 week; cited from earlier work
rKv4.3 (Ito) channel = molecular target: T1, rKv4.3 (Ito) channel (Rattus norvegicus, UniProt Q62897); assay: voltage clamp current block, rKv4.3 channel in stably transfected mammalian cells; assay type: cell-based; conditions: Ito (rKv4.3); 0.067 Hz, 4 bpm
T1 sequence (Q62897 1-655): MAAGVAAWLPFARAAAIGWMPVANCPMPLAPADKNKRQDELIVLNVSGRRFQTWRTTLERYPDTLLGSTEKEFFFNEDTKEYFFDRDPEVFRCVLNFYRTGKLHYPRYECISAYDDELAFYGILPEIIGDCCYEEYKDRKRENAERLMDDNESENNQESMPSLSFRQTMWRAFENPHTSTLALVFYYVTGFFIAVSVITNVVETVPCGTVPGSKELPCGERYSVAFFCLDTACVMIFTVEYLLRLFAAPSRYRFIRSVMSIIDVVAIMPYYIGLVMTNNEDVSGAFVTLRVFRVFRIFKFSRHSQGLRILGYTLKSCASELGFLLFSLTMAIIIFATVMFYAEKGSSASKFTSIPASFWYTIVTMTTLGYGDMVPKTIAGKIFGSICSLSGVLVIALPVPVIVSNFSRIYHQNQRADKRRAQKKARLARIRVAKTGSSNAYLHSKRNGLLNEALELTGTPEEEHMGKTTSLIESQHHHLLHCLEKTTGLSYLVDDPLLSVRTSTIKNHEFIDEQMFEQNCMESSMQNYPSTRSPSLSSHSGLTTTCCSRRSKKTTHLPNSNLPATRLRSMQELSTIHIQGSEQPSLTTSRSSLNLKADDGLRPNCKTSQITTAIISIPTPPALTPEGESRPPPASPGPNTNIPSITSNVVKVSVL

[2] = molecular target: T2, native cardiac L-type calcium channel (gpCaCh, ICa,L) (Cavia porcellus, UniProt O35505); assay: voltage clamp current block, native cardiac L-type calcium channel in guinea pig cardiomyocytes; assay type: cell-based; conditions: 0.05 Hz, 3 beats per minute
T2 construct: native cardiac L-type calcium channel expressed in guinea pig cardiomyocytes; endogenous in cells; host or cells: guinea pig cardiomyocytes

dog Purkinje fibers = assay: duration of the cardiac action potential in dog Purkinje fibers; design: dose or concentration left out as unconfirmed
hHNa ion channel = hHNa ion channel (Homo sapiens, UniProt Q14524); assay: voltage clamp current block, hHNa channel in stably transfected mammalian cells; assay type: cell-based; conditions: 0.1 Hz, 6 bpm
From the text: (§1) Nonlinear least squares fits of the current ratio data yielded the best fit value for the IC50 concentration. A positive control was included for each channel tested in the study.

hERG (IKr) channel = hERG (IKr) channel (Homo sapiens, UniProt Q12809); assay: in vitro
From the text: as §1

hKv1.5 channel = hKv1.5 channel (Homo sapiens, UniProt P22460); assay: voltage clamp current block, hKv1.5 channel in stably transfected mammalian cells; assay type: cell-based; conditions: 0.1 Hz, 6 bpm
[3] = molecular target: hKvLQT1/hminK (IKs) channel (Homo sapiens, UniProt P51787); assay: voltage clamp current block, hKvLQT1/hminK channel in stably transfected mammalian cells; assay type: cell-based; conditions: 0.067 Hz, 4 bpm, unit inferred; read-out: IC50, block of IKs (hKvLQT1/hminK) channels

Sequence of hHNa ion channel (Q14524 whole entry): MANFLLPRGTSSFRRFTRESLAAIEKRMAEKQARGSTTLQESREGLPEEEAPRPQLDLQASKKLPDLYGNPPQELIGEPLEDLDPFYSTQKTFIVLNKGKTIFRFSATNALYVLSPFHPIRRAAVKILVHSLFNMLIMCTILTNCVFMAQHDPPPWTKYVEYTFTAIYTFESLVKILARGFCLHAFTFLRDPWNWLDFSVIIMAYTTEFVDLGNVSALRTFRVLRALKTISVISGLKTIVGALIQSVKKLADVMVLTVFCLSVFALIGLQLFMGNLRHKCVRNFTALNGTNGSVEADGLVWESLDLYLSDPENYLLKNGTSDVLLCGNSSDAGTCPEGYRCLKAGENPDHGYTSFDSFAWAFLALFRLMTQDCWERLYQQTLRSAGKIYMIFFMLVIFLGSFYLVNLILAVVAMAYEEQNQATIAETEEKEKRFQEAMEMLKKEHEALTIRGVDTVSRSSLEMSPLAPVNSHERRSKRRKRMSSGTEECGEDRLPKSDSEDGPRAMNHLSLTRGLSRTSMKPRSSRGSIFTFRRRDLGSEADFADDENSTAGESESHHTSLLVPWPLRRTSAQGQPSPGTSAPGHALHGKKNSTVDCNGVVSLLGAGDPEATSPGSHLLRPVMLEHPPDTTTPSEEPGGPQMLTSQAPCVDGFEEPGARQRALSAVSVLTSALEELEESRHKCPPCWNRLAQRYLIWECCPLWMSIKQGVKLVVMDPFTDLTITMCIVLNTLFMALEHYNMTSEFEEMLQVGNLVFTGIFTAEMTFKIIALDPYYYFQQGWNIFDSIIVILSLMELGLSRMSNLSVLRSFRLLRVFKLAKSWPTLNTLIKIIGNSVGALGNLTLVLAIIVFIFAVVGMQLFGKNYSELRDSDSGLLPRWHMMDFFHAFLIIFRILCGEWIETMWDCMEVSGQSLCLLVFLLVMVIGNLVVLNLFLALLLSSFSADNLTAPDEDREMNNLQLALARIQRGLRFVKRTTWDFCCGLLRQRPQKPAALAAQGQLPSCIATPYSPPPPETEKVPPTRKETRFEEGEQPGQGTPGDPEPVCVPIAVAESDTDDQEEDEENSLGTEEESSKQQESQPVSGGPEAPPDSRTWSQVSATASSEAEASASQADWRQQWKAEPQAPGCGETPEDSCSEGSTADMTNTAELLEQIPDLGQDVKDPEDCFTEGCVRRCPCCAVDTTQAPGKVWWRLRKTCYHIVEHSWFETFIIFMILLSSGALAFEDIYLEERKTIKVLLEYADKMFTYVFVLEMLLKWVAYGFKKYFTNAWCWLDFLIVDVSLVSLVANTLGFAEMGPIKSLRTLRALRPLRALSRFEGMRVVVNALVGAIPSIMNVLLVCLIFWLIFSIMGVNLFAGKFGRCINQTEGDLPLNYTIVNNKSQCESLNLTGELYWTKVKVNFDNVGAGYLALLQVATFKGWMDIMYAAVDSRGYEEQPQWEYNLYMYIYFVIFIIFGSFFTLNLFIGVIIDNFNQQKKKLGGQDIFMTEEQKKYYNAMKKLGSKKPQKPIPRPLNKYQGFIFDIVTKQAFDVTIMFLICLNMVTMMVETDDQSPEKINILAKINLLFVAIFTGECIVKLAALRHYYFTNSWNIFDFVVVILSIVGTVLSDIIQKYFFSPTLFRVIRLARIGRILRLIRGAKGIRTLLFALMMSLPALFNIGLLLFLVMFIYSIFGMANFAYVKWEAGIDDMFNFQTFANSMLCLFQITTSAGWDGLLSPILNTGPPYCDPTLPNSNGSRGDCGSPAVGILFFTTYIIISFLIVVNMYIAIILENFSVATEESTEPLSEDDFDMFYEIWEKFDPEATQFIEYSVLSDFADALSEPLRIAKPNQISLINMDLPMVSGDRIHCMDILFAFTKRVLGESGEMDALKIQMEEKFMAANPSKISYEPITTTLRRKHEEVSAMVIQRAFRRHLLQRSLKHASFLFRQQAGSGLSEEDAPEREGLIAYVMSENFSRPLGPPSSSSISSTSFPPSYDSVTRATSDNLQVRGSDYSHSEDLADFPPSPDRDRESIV
Sequence of hERG (IKr) channel (Q12809 whole entry): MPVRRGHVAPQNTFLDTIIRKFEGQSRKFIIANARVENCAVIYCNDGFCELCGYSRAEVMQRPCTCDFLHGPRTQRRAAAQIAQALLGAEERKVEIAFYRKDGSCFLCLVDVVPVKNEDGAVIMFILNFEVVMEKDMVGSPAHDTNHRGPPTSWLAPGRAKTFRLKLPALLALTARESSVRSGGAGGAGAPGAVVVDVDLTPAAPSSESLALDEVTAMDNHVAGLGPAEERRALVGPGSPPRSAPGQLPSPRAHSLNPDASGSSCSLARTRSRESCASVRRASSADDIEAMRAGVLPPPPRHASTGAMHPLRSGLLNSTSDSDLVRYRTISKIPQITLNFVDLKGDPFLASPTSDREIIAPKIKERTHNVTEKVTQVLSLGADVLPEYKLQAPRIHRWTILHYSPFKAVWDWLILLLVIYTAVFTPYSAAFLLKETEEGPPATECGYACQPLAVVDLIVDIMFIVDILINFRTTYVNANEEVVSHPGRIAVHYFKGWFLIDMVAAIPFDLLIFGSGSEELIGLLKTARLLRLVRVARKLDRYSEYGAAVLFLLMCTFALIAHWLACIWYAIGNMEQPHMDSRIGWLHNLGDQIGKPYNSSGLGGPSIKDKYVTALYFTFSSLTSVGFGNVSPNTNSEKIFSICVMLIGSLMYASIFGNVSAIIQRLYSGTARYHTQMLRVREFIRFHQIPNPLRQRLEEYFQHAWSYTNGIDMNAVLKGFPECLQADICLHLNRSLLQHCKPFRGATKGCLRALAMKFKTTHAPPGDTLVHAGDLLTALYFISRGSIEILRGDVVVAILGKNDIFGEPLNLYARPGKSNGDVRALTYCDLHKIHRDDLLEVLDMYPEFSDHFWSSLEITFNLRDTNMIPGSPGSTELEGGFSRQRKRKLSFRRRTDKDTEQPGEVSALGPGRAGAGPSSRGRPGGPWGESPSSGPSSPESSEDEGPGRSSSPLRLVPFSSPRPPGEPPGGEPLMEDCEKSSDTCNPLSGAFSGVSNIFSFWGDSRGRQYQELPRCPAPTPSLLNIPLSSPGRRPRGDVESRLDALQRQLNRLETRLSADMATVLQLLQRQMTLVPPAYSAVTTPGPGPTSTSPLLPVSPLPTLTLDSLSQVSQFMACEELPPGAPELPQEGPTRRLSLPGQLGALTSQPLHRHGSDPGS
Sequence of hKv1.5 channel (P22460 whole entry): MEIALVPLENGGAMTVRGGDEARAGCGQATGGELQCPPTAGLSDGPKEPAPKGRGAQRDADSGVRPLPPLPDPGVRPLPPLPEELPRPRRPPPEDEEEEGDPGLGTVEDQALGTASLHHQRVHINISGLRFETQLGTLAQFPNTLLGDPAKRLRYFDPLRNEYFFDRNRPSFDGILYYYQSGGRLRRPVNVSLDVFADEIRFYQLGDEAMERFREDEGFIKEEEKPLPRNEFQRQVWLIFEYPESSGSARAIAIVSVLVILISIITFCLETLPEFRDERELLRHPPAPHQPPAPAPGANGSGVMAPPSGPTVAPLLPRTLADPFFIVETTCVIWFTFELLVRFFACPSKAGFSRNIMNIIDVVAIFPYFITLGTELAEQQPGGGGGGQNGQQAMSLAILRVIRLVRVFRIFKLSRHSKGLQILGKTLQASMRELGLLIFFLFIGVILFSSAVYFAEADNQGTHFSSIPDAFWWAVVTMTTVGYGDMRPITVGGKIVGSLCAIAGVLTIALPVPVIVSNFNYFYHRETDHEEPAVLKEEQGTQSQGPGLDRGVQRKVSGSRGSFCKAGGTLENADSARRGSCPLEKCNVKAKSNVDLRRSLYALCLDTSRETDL

In the case of Fc1ccc(C(OCCN2CCN(CCCc3ccccc3)CC2)c2ccc(F)cc2)cc1 [Vanoxerine, vanoxerine], the serum concentration [1] is listed as “about 100 nM”, the IC50 (rKv4.3 (Ito) channel) is listed as 12000 nM and the IC50 [2] is listed as 530 nM. The “effect on the duration of the cardiac potential” value (dog Purkinje fibers) was “no effect; also recorded: did not prolong”, the “Hill coefficient, block of hHNa” value (hHNa ion channel; Hill equation fit) was “greater than 2.0” and the IC50 (hHNa ion channel; read-out: IC50 estimate, block of hHNa (Hill equation fit)) was 570 nM. For the same molecule, the IC50 (hERG (IKr) channel) was 150 nM, the IC50 (hKv1.5 channel) was 2000 nM and the IC50 [3] was 4200 nM.

From patent publication US8450325B2, “Methods for reducing the recurrence of cardiac arrhythmia” (ChanRx Corp., priority 2002, dated 2013)
